Test results as given in article PMC11500415, “Chemical inhibition of stomatal differentiation by perturbation of the master-regulatory bHLH heterodimer via an ACT-Like domain” (Nature Communications, 2024).

Columns and labels:
SCRM-SPCH heterodimer = target: T1, SCRM-SPCH heterodimer (Arabidopsis thaliana, UniProt Q700C7); assay type: cell-based; conditions: 100 μM, 1 day
T1 construct: heterodimerization of SCRM with full-length SPCH, MUTE, or FAMA in the context of the plant cells; combinations of split YFP constructs fused to the full-length stomatal bHLH proteins; nYFP (N terminus of EYFP, 174 amino acids); cYFP (C terminus of EYFP, 64 amino acids); expressed in transfected cells; host or cells: Nicotiana benthamiana leaves (Agrobacterium infiltration)
T1 sequence (Q700C7 1-364): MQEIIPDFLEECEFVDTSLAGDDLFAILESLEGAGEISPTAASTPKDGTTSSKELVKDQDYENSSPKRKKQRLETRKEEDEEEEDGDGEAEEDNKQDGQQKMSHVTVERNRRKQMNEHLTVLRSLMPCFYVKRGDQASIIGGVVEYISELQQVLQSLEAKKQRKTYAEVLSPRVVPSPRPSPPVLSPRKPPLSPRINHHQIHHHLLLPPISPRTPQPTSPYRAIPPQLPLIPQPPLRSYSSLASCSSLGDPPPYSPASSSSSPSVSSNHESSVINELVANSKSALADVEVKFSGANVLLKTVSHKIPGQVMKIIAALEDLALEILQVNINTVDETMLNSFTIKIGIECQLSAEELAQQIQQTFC
Text: For ratiometric BiFC assays, the cDNAs of SPCH, MUTE, and FAMA were cloned into the 35S CaMV promoter-driven destination vector pSPYNE, which contains the N terminus of the EYFP protein (nYFP-174 amino acids), while the cDNA of SCRM and SCRM2 was inserted into pSPYCE, which contains the C terminus of the EYFP protein (cYFP-64 amino acids) (see Supplementary Table 5 for detailed information of the constructs). The constructs were then transformed into Agrobacterium tumefaciens strain GV3101. The Agrobacterium was resuspended in infiltration buffer (10 mM MgCl2, 10 mM 2-(N-morpholino)ethanesulfonic acid [pH 5.6], and 150 µM acetosyringone). Bacterial culture densities were adjusted to a final optical density (OD600) of 1.0, and the cell suspensions were incubated at room temperature for 4 hours prior to infiltration. Equal volumes of cultures carrying the corresponding complementary pair of BiFC constructs (YFPn and YFPc), along with CaMV35S::Histone H2B-mScarlet-I3 and the silencing suppressor plasmid p19 (a gift from Dr. Sir David Baulcombe) were mixed and then co-infiltrated into 4-week-old N. benthamiana leaves. The infiltrated N. benthamiana leaves were incubated at 25 °C for 2 days. Subsequently, leaf discs were cut out and cultured in mock or in liquid 1/2 MS media in mock (DMSO) or 100 µM Stomidazolone for 1 day. Confocal imaging of N. benthamiana leaves was performed using a Leica SP8 confocal microscope using a 20X objective lens (Leica Microsystems), simultaneously capturing YFP (excitation at 518 nm and emission at 530 nm) and mScarlet-I3 (excitation at 569 nm and emission at 600 nm) differential interference contrast channels.

FAMA = target: T2, FAMA (Arabidopsis thaliana, UniProt Q56YJ8); assay: ITC direct binding; set-up: species or system A. thaliana
T2 construct: ΔNFAMA (190-414); made in house; host or cells: E. coli BL21
Text: (§1) A. thaliana SCRM (1-494), ΔNSPCH (98-364), MUTE (1-202), ΔNFAMA (190-414), MUTEΔC (1-114), MUTER133A_R134A, MUTEE162A_E163A, MUTER133A_R134A_E162A_E163A, SCRM-ACTL (405-494), MUTE-ACTL (114-202), SPCH-ACTL (285-364), FAMA-ACTL (306-414), MUTE_ACTLR133A_R134A, MUTE_ACTLE162A_E163A, MUTE_ACTLR133A_R134A_E162A_E163A were cloned into pGEX-4T-1 vector with an N-terminal GST tag and a thrombin cleavage sequence. For protein expression, the constructs were transformed into E. coli strain BL21. For each transformant, a single colony was selected and incubated in 10 ml LB liquid media. The overnight-incubated E. coli suspensions were transferred to 1 L LB medium and incubated at 37 °C for around 2 h until the OD600 reached 0.4–0.6. The isopropyl β-D-1-thiogalactopyranoside ([…] of final concentration) was added to the cultures and the strains were incubated at 22 °C for a further 18 h. GST-fused proteins were purified using glutathione agarose resin. The soluble portion of the cell lysate was loaded onto a GST-Sepharose column. Nonspecifically bound proteins were removed by washing the column with 20 mM Tris pH 8.0, 200 mM NaCl. The bound GST-fused protein was eluted with 10 mm glutathione and 20 mM Tris pH 8.0, 200 mM NaCl. The GST-fused proteins were exchanged with phosphate-buffered saline buffer, and then the solution was treated with 50 μg of thrombin for 10–12 h at 16 ^οC. The GST portion of the protein was cleaved during thrombin digestion, and then the whole solution was reloaded onto the glutathione S-transferase column to obtain pure protein. The purified proteins were further purified by gel filtration on a Superdex-200 (GE) column using fast protein liquid chromatography and phosphate buffer (pH 7.2) as the eluent. The purity of the protein was checked by SDS-PAGE. For detailed lists of oligo DNA and plasmid information, see Supplementary Tables 5, 6, respectively.
(§2) Binding of the small molecule Stomidazolone (3) to SCRM, MUTE, SPCH, FAMA, MUTEΔC, MUTE_ACTL, SCRM_ACTL, SPCH_ACTL and FAMA_ACTL, MUTER133A_R134A, MUTEE162A_E163A, MUTER133A_R134A_E162A_E163A, as well as SCRM binding to MUTE in the presence and absence of Stomidazolone (3) / AYSJ1059 (5) /AYSJ1061 (6) was characterized at 30 °C using a Malvern PEAQ-ITC microcalorimeter. All the protein samples were dialyzed overnight using PBS buffer containing 2% DMSO and 1 mM DTT. Stomidazolone was dissolved in PBS buffer containing 2% DMSO and 1 mM DTT. Titrations were performed by injecting 1 × 0.5-μL and 12 × 3-μL or 1 × 0.75-μL and 18 × 2-μL or 1 × 0.2-μL and 25 × 1.3-μL aliquots of 1 mM Stomidazolone / AYSJ1059 / AYSJ1061 to 5-30 μM of protein in PBS buffer pH 7.4, containing 2% DMSO and 1 mM DTT. All titrations were carried out at least twice. The raw data were corrected using buffer and protein controls and analyzed using the software supplied by the manufacturer. See Supplementary Table 3 for details.

SPCH_ACTL = target: T3, SPCH_ACTL (Arabidopsis thaliana, UniProt Q700C7); assay: ITC direct binding; set-up: species or system A. thaliana
T3 construct: SPCH-ACTL (285-364); GST (N, cleaved yes); made in house; host or cells: E. coli BL21
Text: as §1, §2

T2 sequence (Q56YJ8 190-414): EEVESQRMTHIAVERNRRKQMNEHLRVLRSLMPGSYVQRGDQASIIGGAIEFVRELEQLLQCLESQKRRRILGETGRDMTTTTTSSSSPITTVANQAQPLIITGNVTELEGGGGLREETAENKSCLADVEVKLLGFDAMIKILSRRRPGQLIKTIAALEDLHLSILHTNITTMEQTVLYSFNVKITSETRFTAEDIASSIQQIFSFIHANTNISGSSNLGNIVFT

O=C1C(c2ccccc2)=NC(NS(=O)(=O)c2ccccc2)(c2ccccc2)N1S(=O)(=O)c1ccccc1 (stereo not drawn) [Stomidazolone]
effect on heterodimerization, YFP/RFP signal ratio (in words) (SCRM-SPCH heterodimer): weakly affecting
-T△S (FAMA): 2.4 ± 0.3
Kd (FAMA): 80.4 ± 4.1 µM
△G (FAMA): -1.8 ± 0.2
△H (FAMA): -4.2 ± 0.2
-T△S (SPCH_ACTL): 3.4 ± 0.2
Kd (SPCH_ACTL): 96.8 ± 7.6 µM
△G (SPCH_ACTL): -2.1 ± 0.2
△H (SPCH_ACTL): -5.5 ± 0.3
